These results are taken from patent US11759518B2, “Medicine for treating cancer by administering a toll-like receptor agonist and LAG-3 IgG fusion protein” (NEC CORPORATION, priority 2016, dated 2023).

One test concerns P815 tumor cells. The test can be described thus: Suppression of tumor growth by immunoadjuvant combination, P815 model. In kind it is in vivo, mouse. The following applies: DBA/2 mice with P815 tumor, PIA CTL i.v. Day 7. From the text: The following substances were used as adjuvants.
Poly I:C (TLR3 agonist) (Invivogen, SanDiego, USA)
RIBOXXOL (TLR3 agonist) (Riboxx, Radebeul, Germany)
MPL (TLR4 agonist) (Invivogen, SanDiego, USA)
Imiquimod (TLR7/8 agonist) (Invivogen, SanDiego, USA)
CpG (TLR9 agonist) (Invivogen, SanDiego, USA)
LAG-3Ig (Adipogen, SanDiego, USA)
P815 tumor cells were subcutaneously inoculated to DBA/2 mice in an amount of 5×10^5 cells per mouse to prepare cancer model mice. The day of inoculation was specified as Day 0. On Day 7, PIA CTL (2.5×10^5 cells per mouse) were intravenously injected. Day 8 and Day 15, an admixture of PIA peptide (50 μg per mouse) and an adjuvant in PBS was subcutaneously injected. Mice were divided into 9 groups each consisting of 4 or 5 mice and the following adjuvants were used respectively.
Group 1: PIA peptide alone (control)
(§1) Group 2: Poly I:C (50 μg/mouse)
Group 3: Poly I:C (50 μg/mouse)+LAG-3Ig (1 μg/mouse)
Group 4: No PIA peptide, Poly I:C (50 μg/mouse)+LAG-3Ig (1 μg/mouse) alone
Group 5: RIBOXXOL (100 μg/mouse) Group 6: RIBOXXOL (100 μg/mouse)+LAG-3Ig (1 μg/mouse)
Group 7: MPL (10 μg/mouse)+LAG-3Ig (1 μg/mouse) Group 8: Imiquimod (50 μg/mouse)+LAG-3Ig (1 μg/mouse)
Group 9: CpG (10 μg/mouse)+LAG-3Ig (1 μg/mouse)

In test [1] the test system is P815 cells (DBA/2mouse-derived mouse mastocytoma). The test can be described thus: Comparison of adjuvants in a cancer vaccine with PIA peptide, tumor size and survival. In kind it is in vivo. The settings on record: DBA/2 mice with P815 tumor, 5 mice per group; PIA CTL i.v. Day 8; adjuvant admixed with PIA peptide 50 μg per mouse s.c. Day 9 and Day 16. From the text:
In accordance with the protocol shown in FIG. 1, the effects of adjuvants in cancer vaccines using a cancer-antigen derived peptide were compared.
As cancer model mice, DBA/2 mice, to which P815 cells (DBA/2mouse-derived mouse mastocytoma) were grafted, were put in use.
As a cancer-antigen derived peptide, a peptide (hereinafter referred to as “PIA peptide”) consisting of a partial sequence of PIA protein was used, which is a tumor antigen of P815 tumor and known to be restrictively presented by an MHC H-2Ld. The amino acid sequence of PIA peptide are represented by LPYLGWLVF (SEQ. ID No: 40).
As PIA CTL, a T cell expressing a T cell receptor and recognizing PIA peptide was used. […] Based on the positive ratio, the number of PIA-CTL cells was determined and administered.
As the adjuvants, the following substances were used.
P815 tumor cells were subcutaneously inoculated to DBA/2 mice in an amount of 5×10^5 cells per mouse. The day of inoculation was specified as Day 0. On Day 8, PIA CTL (2.5×10^5 cells per mouse) were intravenously injected. On Day 9 and Day 16, an admixture of PIA peptide (50 μg per mouse) and an adjuvant in PBS was subcutaneously injected. Mice were divided into 9 groups each consisting of 5 mice and the following adjuvants were used, respectively.
Group 2: IFA (50 μL/mouse)
Group 3: PT (1×10^8/mouse)
Group 4: Poly I:C (50 μg/mouse) […]

The subject of a further test is B16-F10 melanoma cells. The test is described as follows: Tumor growth inhibitory effect of immuno-adjuvant combination in B16-F10 melanoma inoculation model mice. In kind it is in vivo, mouse. The following applies: C57BL/6 mice with B16-F10 melanoma. As to the method:
To C57BL/6 mice, B16-F10 melanoma cells (1×10^5 cells per mouse) were subcutaneously inoculated to prepare cancer model mice. The day of inoculation was specified as Day 0. On Day 5 and Day 12, twice in total, an admixture of gp100 peptide (50 μg per mouse) and an adjuvant in PBS was subcutaneously injected. The following adjuvants were used in respective mice groups.
Group 1: IFA (50 μL/mouse)
as §1
Group 3: LAG-3Ig (1 μg/mouse)
Group 4: LAG-3Ig (1 μg/mouse)+Poly I:C (50 μg/mouse)

Turning to LPYLGWLVF [PIA peptide alone], the “mice died up to Day 40” value in the test with P815 tumor cells (s.c. injection Day 8 and Day 15) was 5 out of 5.

As to “Polyinosinic:polycytidylic acid [Poly I:C]”, the “number of mice survived until Day 70 without increasing tumor size” value in test [1] was 1. Moreover, in the test with B16-F10 melanoma cells (Groups 2 and 3 compared to Group 1 (IFA), Group 4 compared to Groups 1, 2 and 3), the “effect of extending survival time” value is listed as “a significant effect of extending survival time was not observed”. Besides, the “day on which five mice all died” value with B16-F10 melanoma cells (adjuvant admixed with gp100 peptide 50 μg s.c. Day 5 and Day 12) was determined as 35 days. Further, in the test on P815 tumor cells (read against Day 40 of the preceding sentence, adjuvant admixed with PIA peptide (unless stated) s.c. Day 8 and Day 15), the mice survived entry is listed as “Four out of 5”.
